Read-outs that look alike come from different tables or passages of the source.
Columns and labels:
[1] = prior-art product, exposed to air; cited from earlier work
Bulk density test = format: physicochemical
[2] = Flowability test (angle of repose); format: physicochemical
Procedure: Flowability test: The angle of repose is the maximum angle formed between the free slope of a piled powder and the horizontal plane. It is measured when the particles achieve a static state as they slide on the free slope of the piled powder and experience a balance of gravity and interparticle friction. It is the easiest way to examine the flowability of a powder. The smaller the angle of repose, the smaller the friction and the better the flowability.

[3] = Moisture absorption and agglomeration; format: physicochemical
[4] = Particle size distribution by laser particle size analyzer; format: physicochemical; details: hemihydrate
Source text: The particle size distribution curves of the products in the embodiments of the present invention were all determined by Masterizer laser particle size analyzer from Malvern Panalytical (the U.K.).

Row | SMILES | bulk density (in words) (Bulk density test) | flowability (in words) [2] | moisture absorption and agglomeration [3] | also measured
1 | NCCCC(=O)O | – | – | – | hygroscopicity [1]: highly hygroscopic
2 | NCCCC(=O)O [Embodiment 1, γ-aminobutyric acid hemihydrate] | – | – | did not easily absorb moisture and agglomerate | bulk density (Bulk density test; hemihydrate): 0.85 g/mL; angle of repose ([2]; hemihydrate): 38 °; main particle size [4]: 110 μm
3 | NCCCC(=O)O [Embodiment 2, γ-aminobutyric acid hemihydrate] | high bulk density | good flowability | did not easily absorb moisture and agglomerate | –
4 | NCCCC(=O)O [Embodiment 3, γ-aminobutyric acid hemihydrate] | high bulk density | good flowability | did not easily absorb moisture and agglomerate | –
5 | NCCCC(=O)O [Embodiment 4, γ-aminobutyric acid hemihydrate] | high bulk density | good flowability | did not easily absorb moisture and agglomerate | –
6 | NCCCC(=O)O [crude λ-aminobutyric acid raw material, γ-aminobutyric acid, reference compound] | – | – | – | bulk density (Bulk density test): 0.65 g/mL; angle of repose [2]: 50 °

More lines, main results first:

Row | bulk density (in words) (Bulk density test) | flowability (in words) [2] | SMILES | moisture absorption and agglomeration [3] | also measured
7 | high bulk density | good flowability | NCCCC(=O)O [Embodiment 5, γ-aminobutyric acid hemihydrate] | did not easily absorb moisture and agglomerate | –
8 | high bulk density | good flowability | NCCCC(=O)O [Embodiment 6, γ-aminobutyric acid hemihydrate] | did not easily absorb moisture and agglomerate | –

— patent publication US10487044B2, “Gamma-aminobutyric acid hemihydrate crystal and preparation method thereof” (priority 2016, dated 2019)
